Common to all, as to assay: relative viability (nuclei count vs DMSO), 5 days (fraction); higher = more cells survive
Compound in assay [1]: C1=CC=C(C(=C1)C2=CC=C(C=C2)C3=CSC4=C3C(=C(C(=O)N4)C#N)O)O + Cc1nc(Nc2ncc(C(=O)Nc3c(C)cccc3Cl)s2)cc(N2CCN(CCO)CC2)n1 [Dasatinib] (partner 0.075 µM)
The procedure, abridged:
(§1)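 Lung cancer cell lines in 1536-well plates were dosed by pin tool the day after seeding, either with one drug alone or with a fixed anchor-drug dose plus five library-drug doses (not always all listed) in √10 steps. After 5 days, cells were fixed and their nuclei stained in one step (final 0.05% Triton X-100, 1% formaldehyde, 1 ug/ml Hoechst), then counted on 4× images. Relative viability is the nuclei count in treated wells divided by that in vehicle wells. Values are medians of duplicate plates.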

Compound in the assay “TGX 221 + Alpelisib”: CC1=CN2C(=O)C=C(N=C2C(=C1)C(C)NC3=CC=CC=C3)N4CCOCC4 [TGX 221] + Cc1nc(NC(=O)N2CCC[C@H]2C(N)=O)sc1-c1ccnc(C(C)(C)C(F)(F)F)c1 [Alpelisib] (partner 2 µM)
In short, it runs like this:
as §1

Compound in assay [2]: C1=CC=C(C(=C1)C2=CC=C(C=C2)C3=CSC4=C3C(=C(C(=O)N4)C#N)O)O + CC(=O)c1c(C)c2cnc(Nc3ccc(N4CCNCC4)cn3)nc2n(C2CCCC2)c1=O [Palbociclib] (partner 0.5 µM)
In short, it runs like this: as §1

Compound in the assay “TGX 221 + Crizotinib”: CC1=CN2C(=O)C=C(N=C2C(=C1)C(C)NC3=CC=CC=C3)N4CCOCC4 [TGX 221] + C[C@@H](Oc1cc(-c2cnn(C3CCNCC3)c2)cnc1N)c1c(Cl)ccc(F)c1Cl [Crizotinib] (partner 1 µM)
In short, it runs like this:
as §1

Compound in assay [3]: C1=CC=C(C(=C1)C2=CC=C(C=C2)C3=CSC4=C3C(=C(C(=O)N4)C#N)O)O + CC(C)C[C@H](NC(=O)[C@H](Cc1ccccc1)NC(=O)c1cnccn1)B(O)O [Bortezomib] (partner 0.002 µM)
The procedure, abridged:
as §1

For NCI-H1792, the relative viability in assay [1] (first compound 0.253 µM) turned out to be 0.803; in assay [1] (first compound 2.53 µM), 0.722; in assay [1] (first compound 8 µM), 0.508; with TGX 221 + Alpelisib (first compound 0.08 µM), 0.609; with TGX 221 + Alpelisib (first compound 0.253 µM), 0.599; in the assay with TGX 221 + Alpelisib (first compound 0.8 µM) it was 0.698. Moreover, the relative viability was determined as 0.511 with TGX 221 + Alpelisib (first compound 2.53 µM); 0.432 in the assay with TGX 221 + Alpelisib (first compound 8 µM); 0.65 in assay [2] (first compound 0.253 µM); 0.895 in assay [2] (first compound 2.53 µM); 0.355 in assay [2] (first compound 8 µM); 0.883 in the assay with TGX 221 + Crizotinib (first compound 0.08 µM). For the same cell line, the relative viability is 1.08 in the assay with TGX 221 + Crizotinib (first compound 0.253 µM); 0.944 with TGX 221 + Crizotinib (first compound 0.8 µM); 0.948 with TGX 221 + Crizotinib (first compound 2.53 µM); 0.857 with TGX 221 + Crizotinib (first compound 8 µM); 0.866 in assay [3] (first compound 0.253 µM); 1.1 in assay [3] (first compound 0.8 µM). Further, the relative viability was 1.03 in assay [3] (first compound 2.53 µM) and 0.425 in assay [3] (first compound 8 µM).

(Values after the supplement of paper PMC10307832.)
